Each structure is given as a SMILES string. Values after ≈ are worked out from the molar mass of the structure shown. Values joined by “and” are separate entries in the source; they are usually repeats but may differ in a detail not shown here. Equal values may be shown once.

By IC50 is commonly meant the concentration at which inhibition is half-maximal. Read a high IC50 as weaker potency in that assay.

Series [1] has as its system RAW264.7 macrophages. To be noted: RAW264.7, 48 h, ±SD.
The target of series [2] is T1, M. tuberculosis MurE (Mycobacterium tuberculosis, UniProt P9WJL3).
T1 sequence (P9WJL3 1-535): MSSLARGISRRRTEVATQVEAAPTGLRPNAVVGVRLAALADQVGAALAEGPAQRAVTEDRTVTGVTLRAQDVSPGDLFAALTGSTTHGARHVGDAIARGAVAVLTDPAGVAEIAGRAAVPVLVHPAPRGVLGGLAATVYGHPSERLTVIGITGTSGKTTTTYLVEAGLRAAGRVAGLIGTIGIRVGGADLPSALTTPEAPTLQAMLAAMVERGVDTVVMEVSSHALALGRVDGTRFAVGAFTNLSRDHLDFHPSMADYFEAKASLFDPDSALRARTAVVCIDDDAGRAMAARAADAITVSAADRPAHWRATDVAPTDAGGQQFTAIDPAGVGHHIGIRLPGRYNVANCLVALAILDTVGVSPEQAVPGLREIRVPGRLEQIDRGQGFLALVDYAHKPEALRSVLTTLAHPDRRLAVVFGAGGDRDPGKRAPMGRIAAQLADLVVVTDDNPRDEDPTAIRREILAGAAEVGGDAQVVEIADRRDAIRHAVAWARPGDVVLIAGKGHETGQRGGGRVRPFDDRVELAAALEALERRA
Description: MurE ligase inhibition, HPLC quantification of UDP-MurNAc-tripeptide. The class given is biochemical.

The subject of series [3] is M. fortuitum. Description: Microdilution MIC assay in cation-adjusted Mueller–Hinton broth. The class given is cell-based, Mycobacterium fortuitum. To be noted: Mycolicibacterium fortuitum, read-out: MIC M. fortuitum. In general terms: Dilution methods test growth across graded concentrations, often in twofold steps.
Series [4] concerns M. phlei. The description is as above. The format is cell-based, Mycobacterium phlei. The following applies: Mycolicibacterium phlei, read-out: MIC M. phlei.
Series [5] concerns the target T1, M. tuberculosis MurE. Description: MurE ligase inhibition, phosphate colorimetric detection method. The class given is biochemical.
In series [6] the test system is M. smegmatis mc^2155. Description: microbe, parasite or virus in culture. The class given is cell-based, Mycobacterium smegmatis. To be noted: Mycolicibacterium smegmatis, MC^2155, 72 h, read-out: MIC M. smegmatis mc^2155.
In series [7] the test system is EMRSA-16. Description: Microdilution MIC assay in Mueller–Hinton broth. The class given is cell-based. The following applies: Staphylococcus aureus, read-out: MIC S. aureus EMRSA-16.
In series [8] the test system is EMRSA-15. Description: Microdilution MIC assay in Mueller–Hinton broth. The format is cell-based. To be noted: Staphylococcus aureus, read-out: MIC S. aureus EMRSA-15.

As for `NNC(=O)c1ccncc1` [Isoniazid], in series [1], the “Murine macrophages GIC50 (50% growth inhibition concentration)” value was more than 500 mg/L. Further, the IC50 in series [2] and in series [5] was more than 1000 µM in each case. For the same molecule, the MIC in series [3] is 1 µg/mL and 3.65 µM; in series [4] it was 4 µg/mL and 15 µM; in series [6] it was 5 µg/mL and 18.5 µM.

`CCn1cc(C(=O)O)c(=O)c2cc(F)c(N3CCNCC3)cc21` [norfloxacin]: the results for the MIC in series [7] and in series [8] were 256 µg/mL (≈ 802 µM) and 0.5 µg/mL (≈ 1.57 µM), respectively.

These data come from article PMC3133487 (Journal of Antimicrobial Chemotherapy, 2011).
